The values below come from paper PMC4084896 (PLoS ONE, 2014).

One data set has as its system C. krusei 3. In words: MIC assessment, microdilution. The class given is cell-based. Conditions: Pichia kudriavzevii. On the procedure: (§1) Antifungal activity was assessed using the standard microdilution method determining the minimum inhibitory concentrations (MICs) of the tested samples leading to inhibition of yeast growth. Disposable microtiter plates were used for the tests. The samples were diluted in brain heart infusion broth (HiMedia). […] C. albicans, C. krusei, C. tropicalis and C. parapsilosis. […] Subsequently, 100 µL were transferred into the first microplate well and serially diluted by a factor of 2. The prepared microplates were inoculated with a standard amount of the tested Candida spp. – the inoculum density in a well was equal to 10^5 CFU/mL. […] The minimum fungicidal concentration (MFC) is the minimum concentration of the sample required to kill the yeast after a defined period of incubation. The MFCs were determined by the inoculation method. With an applicator, 10 µL were transferred from the microplate wells with defined concentrations of the tested sample and inoculated onto Sabouraud agar (Trios). The MFC was determined as the lowest concentration that inhibited the visible growth of the used yeast. For growth curve assessment, the samples were serially diluted in 96-well microtiter plates. […] Absorbance (630 nm) was measured every hour during 24 hours and the obtained values were used to plot growth curves

In a further data set the test system is C. krusei 094. In words: MIC assessment, microdilution. The class given is cell-based. The conditions noted are these: Pichia kudriavzevii. On the procedure: as §1
The test system of the next data set is C. albicans 978. In words: MIC assessment, microdilution. The class given is cell-based. Conditions: Candida albicans. On the procedure: as §1
Another data set concerns C. albicans 1. In words: MIC assessment, microdilution. The class given is cell-based. The conditions noted are these: Candida albicans. On the procedure: as §1
A further data set deals with C. parapsilosis 6. In words: MIC assessment, microdilution. The class given is cell-based. Conditions: Lodderomyces parapsilosis. As for the experimental part:
as §1

A further data set deals with C. tropicalis 5. In words: MIC assessment, microdilution. The class given is cell-based. Conditions: Candida tropicalis. On the procedure: as §1
A further data set deals with T1, AhR (Mus musculus, UniProt P30561).
T1 construct: endogenous in cells; host or cells: mouse hepatoma Hepa-1c1c7 cells (living cells treated 2 h, then nuclear extracts made)
In words: EMSA with nuclear extracts from Hepa-1c1c7 cells (AhR-ARNT-DRE complex). The class given is cell-based. The conditions noted are these: Hepa-1c1c7 nuclear extracts, 50 µM, 2 h. On the procedure:
Electrophoretic mobility shift assay was performed in guinea pig cytosol and nuclear extract from mouse hepatoma cells. Hepa-1c1c7 cells were incubated for 2 h with tested compounds. Nuclear extracts procedure and EMSA analysis was performed as previously described (Soshilov & Denison; 2014). Guinea pig hepatic cytosol (8 mg/mL in HEDG) was incubated for 2 h in a room temperature water bath with tested compounds. An aliquot of the reaction was mixed with poly[dI•dC] and [^32P]-DRE (100.000 cpm), and AHR:DRE:[^32P]DRE complexes were resolved by gel retardation analysis, visualized by autoradiography and quantified by phosphorimager analysis (FujiFilm) of the dried gels.
We carried out the electrophoretic mobility shift assay (EMSA) to reveal whether effects of KET on AhR-CYP1A pathway involve transformation of AhR to DNA binding form, and whether these effects are enantiospecific. For this purpose, EMSA was performed in two experimental systems: (i) Hepatic guinea pig cytosol was treated for 2 hours with DMSO, 20 nM TCDD, (+)-KET, (−)-KET and commercial rac-KET (from Sigma) at 10 µM, 30 µM and 50 µM. All forms of KET transformed AhR to DNA binding form, but the activation was very weak and not statistically above background. There was a slightly stronger effect of (+)-KET and rac-KET as compared to (−)-KET, but the difference was not significant (Figure 4A). (ii) Since we obtained only weak signals in guinea pig liver cytosols, we also analyzed nuclear extracts from mouse hepatoma Hepa-1c1c7 cells treated for 2 hours with DMSO, TCDD (10 nM), (+)-KET (50 µM), (−)-KET (50 µM), commercial rac-KET (Sigma; 50 µM) or an equimolar mix of (+)/(−) enantiomers (50 µM total). […] The effects of (−)-KET were slightly stronger as compared to (+)-KET. […] In addition, we observed formation of the second band with lower molecular weight than AhR-ARNT-DRE, by purified KET enantiomers but not by TCDD and commercial KET.

Data set [1] has as its target T2, glucocorticoid receptor (GR) (Homo sapiens, UniProt P04150).
T2 sequence (P04150 1-777): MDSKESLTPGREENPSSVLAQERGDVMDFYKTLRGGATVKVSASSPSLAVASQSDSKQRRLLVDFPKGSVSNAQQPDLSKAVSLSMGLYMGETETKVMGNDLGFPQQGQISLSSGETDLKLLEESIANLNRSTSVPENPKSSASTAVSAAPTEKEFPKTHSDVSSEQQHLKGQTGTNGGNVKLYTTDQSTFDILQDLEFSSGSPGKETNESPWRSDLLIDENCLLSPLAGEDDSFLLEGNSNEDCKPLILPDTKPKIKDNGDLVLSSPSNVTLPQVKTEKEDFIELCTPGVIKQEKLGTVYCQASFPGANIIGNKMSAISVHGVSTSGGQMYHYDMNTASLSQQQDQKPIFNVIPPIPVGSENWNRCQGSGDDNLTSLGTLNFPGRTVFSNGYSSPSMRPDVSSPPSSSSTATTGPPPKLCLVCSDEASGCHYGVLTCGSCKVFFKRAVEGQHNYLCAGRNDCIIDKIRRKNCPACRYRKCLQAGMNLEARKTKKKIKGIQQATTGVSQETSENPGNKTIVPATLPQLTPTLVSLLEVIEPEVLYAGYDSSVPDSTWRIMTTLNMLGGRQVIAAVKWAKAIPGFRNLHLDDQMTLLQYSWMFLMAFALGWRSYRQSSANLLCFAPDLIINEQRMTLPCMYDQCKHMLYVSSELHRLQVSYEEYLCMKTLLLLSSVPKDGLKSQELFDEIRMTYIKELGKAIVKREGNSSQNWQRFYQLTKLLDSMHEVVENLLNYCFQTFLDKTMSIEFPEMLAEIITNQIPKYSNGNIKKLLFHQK
In words: GR gene reporter assay in AZ-GR cells, antagonist mode (DEX 100 nM). The class given is cell-based. The conditions noted are these: 24 h. From the text: (§2) A stably transfected gene reporter cell line AZ-AHR, derived from human hepatoma HepG2 cells transfected with a construct containing several AhR binding sites upstream of a luciferase reporter gene, was used for assessment of AhR transcriptional activity. A stably transfected gene reporter cell line AZ-GR, derived from human cervix carcinoma HeLa cells transfected with a construct containing several GR response elements upstream of a luciferase reporter gene, was used for assessment of GR transcriptional activity. Cells were incubated for 24 h with tested compounds and/or vehicle (DMSO; 0.1% v/v), in the presence or absence of TCDD (5 nM; AZ-AHR cells) or DEX (100 nM; AZ-GR cells). After the treatments, cells were lysed and luciferase activity was measured. In parallel, cell viability was determined by conventional MTT test.
(§3) There is multiple evidence for the role of glucocorticoid receptor (GR) in regulation of AhR activity. […] Gene reporter assays were performed in agonist and antagonist mode (similarly as described in section 3.1.).

The target in data set [2] is T2, glucocorticoid receptor (GR). In words: GR gene reporter assay in AZ-GR cells, agonist mode. The class given is cell-based.
Description: as §2, §3

Data set [3] deals with T3, aryl hydrocarbon receptor AhR (Homo sapiens, UniProt P35869).
T3 construct: endogenous in cells; host or cells: AZ-AHR (stably transfected reporter line derived from HepG2)
T3 sequence (P35869 11-848): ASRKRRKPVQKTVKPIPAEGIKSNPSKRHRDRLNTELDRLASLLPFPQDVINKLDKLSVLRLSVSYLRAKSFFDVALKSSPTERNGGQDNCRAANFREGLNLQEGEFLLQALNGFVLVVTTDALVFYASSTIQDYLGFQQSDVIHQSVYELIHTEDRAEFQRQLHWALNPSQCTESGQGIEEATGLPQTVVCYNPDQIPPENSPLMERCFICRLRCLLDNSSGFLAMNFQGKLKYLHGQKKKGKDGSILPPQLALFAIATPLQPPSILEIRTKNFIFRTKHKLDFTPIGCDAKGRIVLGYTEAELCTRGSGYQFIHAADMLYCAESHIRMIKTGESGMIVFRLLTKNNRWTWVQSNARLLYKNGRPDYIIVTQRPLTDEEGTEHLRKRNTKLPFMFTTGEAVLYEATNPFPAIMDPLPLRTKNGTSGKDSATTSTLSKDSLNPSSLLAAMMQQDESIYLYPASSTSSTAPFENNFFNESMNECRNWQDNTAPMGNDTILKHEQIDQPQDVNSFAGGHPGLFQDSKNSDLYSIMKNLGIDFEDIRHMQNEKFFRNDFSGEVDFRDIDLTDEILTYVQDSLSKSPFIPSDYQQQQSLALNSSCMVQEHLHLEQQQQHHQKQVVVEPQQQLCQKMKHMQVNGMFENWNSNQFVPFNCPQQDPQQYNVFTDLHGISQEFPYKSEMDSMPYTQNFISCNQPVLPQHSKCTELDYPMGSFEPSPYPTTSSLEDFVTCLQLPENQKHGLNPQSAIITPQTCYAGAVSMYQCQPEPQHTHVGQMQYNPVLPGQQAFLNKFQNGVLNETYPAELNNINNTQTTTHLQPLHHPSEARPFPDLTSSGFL
In words: AhR gene reporter assay in AZ-AHR cells, antagonist mode (TCDD 5 nM). The class given is cell-based. The conditions noted are these: 24 h, in the presence of TCDD 5 nM.
Description: as §2
(§4) Gene reporter assays were performed in two different experimental layouts. In agonist mode, cells were treated with increasing concentrations of tested compounds, and the half-maximal effective concentrations (EC50) were calculated.

Data set [4] concerns the target T3, aryl hydrocarbon receptor AhR. In words: AhR gene reporter assay in AZ-AHR cells, agonist mode. The class given is cell-based.
Description: as §2, §4

Data set [5] can be described thus: MTT cytotoxicity test in AZ-AHR cells. The class given is cell-based, human. The conditions noted are these: human; 24 h incubation, six passages; read-out: AZ-AHR viability - MTT IC50.
Description: as §2
Prior to the agonist or antagonist experiments, the cytotoxicity of tested compounds was assessed using the conventional MTT assay. […] The vehicle was DMSO (0.1% v/v). After the treatment, a MTT test was performed.

A short description of data set [6]: MTT cytotoxicity test in primary human hepatocytes. The class given is cell-based. The conditions noted are these: primary human hepatocytes, read-out: viability, % of control value.
Description: as §2
The cells were treated for 24 h with (+)-KET, (−)-KET and commercial rac-KET (1 µM, 30 µM, 50 µM), and with TCDD (5 nM) and vehicle (DMSO; 0.1% V/V). […] In the cytotoxicity assay, we found all forms of KET highly toxic against human hepatocytes at the concentration 50 µM.

Data set [7] deals with tyrosine aminotransferase (TAT) mRNA. In words: TAT mRNA in HepG2 cells (qRT-PCR). The class given is cell-based, human. The conditions noted are these: HepG2, 1, 30, 50 µM, 24 h.
For a further data set, the system named is AZ-GR cells. In words: MTT cytotoxicity test in AZ-GR cells. The class given is cell-based, human. The conditions noted are these: Homo sapiens; 24 h incubation; read-out: AZ-GR viability - MTT IC50.
Description: as §2, §3

Values after ≈ are worked out from the molar mass of the structure shown.

T1 sequence (P30561 10-805 limits assumed): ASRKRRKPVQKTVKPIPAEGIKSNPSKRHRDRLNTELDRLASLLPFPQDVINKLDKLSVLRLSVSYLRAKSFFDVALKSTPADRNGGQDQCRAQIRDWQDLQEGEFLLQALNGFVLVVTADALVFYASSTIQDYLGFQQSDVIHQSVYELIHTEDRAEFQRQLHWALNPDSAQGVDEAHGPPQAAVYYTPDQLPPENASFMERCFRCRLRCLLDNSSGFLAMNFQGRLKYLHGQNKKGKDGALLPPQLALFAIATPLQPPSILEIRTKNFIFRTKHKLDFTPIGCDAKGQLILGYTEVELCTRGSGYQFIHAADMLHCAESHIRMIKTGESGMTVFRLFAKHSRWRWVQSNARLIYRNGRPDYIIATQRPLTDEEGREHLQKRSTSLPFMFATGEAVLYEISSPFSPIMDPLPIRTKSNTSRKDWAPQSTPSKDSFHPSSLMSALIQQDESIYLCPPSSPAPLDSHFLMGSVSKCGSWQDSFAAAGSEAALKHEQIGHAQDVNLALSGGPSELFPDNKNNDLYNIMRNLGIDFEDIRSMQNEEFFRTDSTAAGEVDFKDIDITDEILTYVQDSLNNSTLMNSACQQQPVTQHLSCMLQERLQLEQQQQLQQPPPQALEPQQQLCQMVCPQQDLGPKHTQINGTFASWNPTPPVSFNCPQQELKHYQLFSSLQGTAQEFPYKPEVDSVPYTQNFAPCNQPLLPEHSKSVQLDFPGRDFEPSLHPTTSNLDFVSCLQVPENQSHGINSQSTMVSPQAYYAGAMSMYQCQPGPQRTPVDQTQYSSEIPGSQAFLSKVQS
T1 sequence (P53762 whole entry partner): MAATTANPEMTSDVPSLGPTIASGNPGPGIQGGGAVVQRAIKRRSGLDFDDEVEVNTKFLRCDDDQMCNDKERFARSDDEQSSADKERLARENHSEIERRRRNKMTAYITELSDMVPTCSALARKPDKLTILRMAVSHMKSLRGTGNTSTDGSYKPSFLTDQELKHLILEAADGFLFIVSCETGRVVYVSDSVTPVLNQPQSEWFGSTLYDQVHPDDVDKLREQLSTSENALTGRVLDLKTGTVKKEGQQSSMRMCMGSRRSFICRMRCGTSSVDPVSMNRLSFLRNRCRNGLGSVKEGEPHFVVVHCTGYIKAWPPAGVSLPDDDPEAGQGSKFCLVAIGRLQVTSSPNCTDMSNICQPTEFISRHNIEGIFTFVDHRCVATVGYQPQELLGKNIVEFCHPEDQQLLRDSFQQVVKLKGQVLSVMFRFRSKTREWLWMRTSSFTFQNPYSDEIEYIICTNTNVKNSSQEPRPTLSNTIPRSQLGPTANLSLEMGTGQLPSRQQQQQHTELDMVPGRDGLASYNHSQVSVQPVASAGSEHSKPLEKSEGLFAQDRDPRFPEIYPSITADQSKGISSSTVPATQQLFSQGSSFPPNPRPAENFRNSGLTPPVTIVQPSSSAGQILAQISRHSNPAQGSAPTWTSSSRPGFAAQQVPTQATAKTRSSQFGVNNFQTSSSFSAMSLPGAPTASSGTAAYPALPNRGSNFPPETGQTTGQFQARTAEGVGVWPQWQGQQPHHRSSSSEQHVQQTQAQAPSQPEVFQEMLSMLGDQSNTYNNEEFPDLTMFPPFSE

For the compound `C[C@@H](c1ncncc1F)[C@](O)(Cn1cncn1)c1ccc(F)cc1F` [Voriconazole, voriconazole], the MIC in the data set with C. krusei 3 worked out at 0.19 µg/mL (≈ 0.544 µM); against C. krusei 094, 0.19 µg/mL (≈ 0.544 µM); with C. albicans 978, 0.016 µg/mL (≈ 0.0458 µM); with C. albicans 1, 0.016 µg/mL (≈ 0.0458 µM); against C. parapsilosis 6, 0.023 µg/mL (≈ 0.0658 µM); with C. tropicalis 5 it was 0.19 µg/mL (≈ 0.544 µM).
As for `CC(=O)N1CCN(c2ccc(OCC3COC(Cn4ccnc4)(c4ccc(Cl)cc4Cl)O3)cc2)CC1` (racemic) [racemic KET obtained by mixing pure (+)-KET and pure (−)-KET in ratio 1∶1], the “transformation of AhR to DNA binding form (in words)” value on AhR is “much weaker and comparable with individual enantiomers”. Also, the “antagonist effect in titration experiment (in words)” value in [1] (final concentration 50 µM, DEX 100 nM) was “much stronger as compared to commercial rac-KET”.
As for `CC[C@@H]([C@H](C)O)n1ncn(-c2ccc(N3CCN(c4ccc(OC[C@@H]5CO[C@@](Cn6cncn6)(c6ccc(F)cc6F)C5)cc4)CC3)cc2)c1=O` [Posaconazole, posaconazole], the MIC with C. krusei 3 was 0.19 µg/mL (≈ 0.271 µM); in the data set with C. krusei 094, 0.25 µg/mL (≈ 0.357 µM); in the data set with C. albicans 978, 0.064 µg/mL (≈ 0.0913 µM); in the data set on C. albicans 1 it was 0.094 µg/mL (≈ 0.134 µM); against C. parapsilosis 6 it was 0.032 µg/mL (≈ 0.0457 µM); in the data set on C. tropicalis 5 it was 0.19 µg/mL (≈ 0.271 µM).
In the case of `OC(Cn1cncn1)(Cn1cncn1)c1ccc(F)cc1F` [Fluconazole, fluconazole], the MIC with C. krusei 3 amounted to 48 µg/mL (≈ 157 µM); in the data set with C. krusei 094 it was 32 µg/mL (≈ 104 µM); against C. albicans 978 it was 1.5 µg/mL (≈ 4.9 µM); in the data set on C. albicans 1, 0.38 µg/mL (≈ 1.24 µM); with C. parapsilosis 6, 2 µg/mL (≈ 6.53 µM); against C. tropicalis 5, 6 µg/mL (≈ 19.6 µM).
With `C[C@@H]1C[C@H]2[C@@H]3CCC4=CC(=O)C=C[C@]4(C)[C@@]3(F)[C@@H](O)C[C@]2(C)[C@@]1(O)C(=O)CO` [DEX, dexamethasone], the “average induction of GR-dependent luciferase activity” value in [2] (100 nM DEX, four passages) was determined as 70 fold.
For `CC(=O)N1CCN(c2ccc(OC[C@@H]3CO[C@@](Cn4ccnc4)(c4ccc(Cl)cc4Cl)O3)cc2)CC1` [(−)-KET, (2S,4R)-(−)-KET], the IC50 turned out to be 17.5 ± 1.7 µM in data set [3], 26.7 ± 3.7 µM in data set [1] (in the presence of DEX 100 nM) and 71.6 ± 27.5 µM in the data set with AZ-GR cells. The “transformation of AhR to DNA binding form (in words)” value on AhR was “only weakly transformed”. For the same compound, the “AZ-AHR gene reporter - agonist efficacy” value in [4] is recorded as 5,2 ± 3,2%. In addition, in data set [4] (24 h, agonist mode), a half-maximal effect (EC50) was put at 2.2 µM. Besides, in data set [5], the IC50 at 24 h was 72.7 ± 27.3 µM. For the same compound, the “increase of luciferase activity, agonist mode” value in [2] (up to / at 100 µM, 24 h) was “did not induce luciferase activity”. In data set [6], the viability at 24 h, 50 µM is 37%. Moreover, the “TAT mRNA induction (in words)” value in data set [7] is recorded as “strong, concentration-dependent induction”.
